# Measured values taken from patent US7157594B2, “6-Fluorobicyclo[3.1.0]hexane derivatives” (Taisho Pharmaceutical Co., Ltd., priority 2001, dated 2007).
# Read-outs that look alike come from different tables or passages of the source.
# How the values were obtained:
# [1] = target: T1, metabotropic glutamate receptor mGluR2 (Rattus norvegicus, UniProt P31421); test: Antagonistic effect on glutamic acid-induced inhibition of forskolin-stimulated cAMP accumulation in CHO cells stably expressing mGluR2; type: cell-based
# T1 construct: expressed in transfected cells
# Method: Antagonistic Effect of Test Drugs on cAMP Accumulation in CHO Cells Modified to Stably Express Metabotropic Glutamate Receptor mGluR2
# Using Dulbecco's modified Eagle's medium with 10% dialyzed fetal bovine serum [1% proline, 50 units/ml penicillin, 50 μg/ml streptomycin, 2 mM L-glutamine (added before use)], CHO cells modified to stably express metabotropic glutamate receptor mGluR2 were seeded in 96-well plates at a ratio of 1.26×10^4 cells/well/0.32 cm^2/150 μl and grown at 37° C. under 5% CO2 for 2 days. The medium was then replaced by L-glutamine-free medium, and after 4 hours, the supernatant was removed by aspiration. PBS(+)-IBMX (10 mM PBS(−), 1 mM MgCl2, 1 mM CaCl2, 1 mM IBMX) was added in 150 μl aliquots and the plates were incubated for 20 minutes at 37° C. under 5% CO2. […] The dried samples were assayed for cAMP levels using a cAMP EIA kit (Amersham). The value of control samples was subtracted from each measured cAMP level.
# [2] = system: male SD rats; test: Antidepressant effect by forced swimming test in rats; type: in vivo, rat; conditions: two i.p. injections (24 hours and 1 hour before) at 0.3, 1 or 3 mg/kg, compared to solvent group, Dunnett's test, FIGS. 1 and 2
# Method: Evaluation of Antidepressant Effect by Forced Swimming Test in Rats
# • (1) The animals used for this experiment were male SD rats (body weigh: 220–240 g, Charles River Japan). • (2) The test drugs used were:
# Namely, the rats were placed in a cylinder containing water 30 cm deep and forced to swim for 15 minutes. After a period of 24 hours, the rats were forced again to swim for 5 minutes (actual experiment). The immobility time in this actual experiment was measured for each rat to evaluate the antidepressant effect of test drugs.
# The test groups received two intraperitoneal injections (24 hours and 1 hour before the actual experiment) of LY341495 or Compound 34 in 1/15 M phosphate buffer at a dose of 0.3 mg/kg, 1 mg/kg or 3 mg/kg. The solvent group received only 1/15 M phosphate buffer by intraperitoneal route. • (4) The symbols * and ** in FIGS. 1 and 2 denote statistical significance at P<0.05 and P<0.01 by Dunnett's test, respectively, when compared to the solvent group receiving 1/15 M phosphate buffer.
# [3] = read-out: IC50, concentration required for 50% antagonism of inhibitory effect of 30 μM glutamic acid on 10^-5 M forskolin-stimulated cAMP level
# [4] = 30 μM glutamic acid, 10^-5 M forskolin
# T1 sequence (P31421 19-872): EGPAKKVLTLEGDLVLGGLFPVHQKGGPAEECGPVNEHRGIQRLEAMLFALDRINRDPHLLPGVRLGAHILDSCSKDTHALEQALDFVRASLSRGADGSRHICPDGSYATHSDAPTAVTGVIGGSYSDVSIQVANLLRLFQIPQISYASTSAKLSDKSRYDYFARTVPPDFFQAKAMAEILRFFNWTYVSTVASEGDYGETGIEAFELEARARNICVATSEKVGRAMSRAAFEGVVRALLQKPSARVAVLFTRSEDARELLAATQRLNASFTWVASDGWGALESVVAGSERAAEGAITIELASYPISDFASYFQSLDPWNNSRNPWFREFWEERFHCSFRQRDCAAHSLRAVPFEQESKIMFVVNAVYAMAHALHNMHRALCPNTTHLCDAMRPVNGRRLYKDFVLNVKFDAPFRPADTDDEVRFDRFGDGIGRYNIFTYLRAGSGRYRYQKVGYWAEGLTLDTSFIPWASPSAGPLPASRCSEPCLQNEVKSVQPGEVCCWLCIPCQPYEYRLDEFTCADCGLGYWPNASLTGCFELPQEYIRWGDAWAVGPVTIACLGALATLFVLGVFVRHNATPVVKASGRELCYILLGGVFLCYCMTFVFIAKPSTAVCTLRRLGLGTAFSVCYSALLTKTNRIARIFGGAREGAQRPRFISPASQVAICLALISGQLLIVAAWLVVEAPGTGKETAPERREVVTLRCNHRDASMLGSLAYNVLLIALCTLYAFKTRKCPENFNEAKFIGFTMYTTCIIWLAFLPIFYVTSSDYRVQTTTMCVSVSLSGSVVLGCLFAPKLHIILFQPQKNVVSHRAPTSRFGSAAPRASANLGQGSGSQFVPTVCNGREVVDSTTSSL
Structure (SMILES),melting point,"IC50 [1, 3]",immobility time in forced swimming test [2],"IC50 [1, 4]"
"C=CCO[C@@H]1C[C@@H]2[C@H]([C@]1(N)C(=O)O)[C@@]2(F)C(=O)O [Compound 5, (1R,2R,3R,5R,6R)-2-Amino-3-(2-propenyloxy)-6-fluorobicyclo[3.1.0]hexane-2,6-dicarboxylic acid]",> 248 °C,,,
COC1C[C@@H]2[C@@H]([C@@]2(F)C(=O)O)[C@]1(N)C(=O)O (stereo partly drawn) [Compound 2],> 171 °C,,,
CCOC(=O)[C@@]1(N)[C@H]2[C@@H](C[C@H]1OCc1ccc(Cl)c(Cl)c1)[C@]2(F)C(=O)O,> 233 °C,,,
N[C@]1(C(=O)O)[C@H]2[C@@H](C[C@H]1OCc1ccc(Cl)cc1)[C@]2(F)C(=O)O [Compound 22],> 220 °C,29.1 nM,,
Nc1cccc(CO[C@@H]2C[C@@H]3[C@H]([C@]2(N)C(=O)O)[C@@]3(F)C(=O)O)c1 (hydrate or solvate),> 190 °C,,,
"N[C@](CC1c2ccccc2Oc2ccccc21)(C(=O)O)[C@H]1C[C@@H]1C(=O)O [LY341495, (2S)-2-amino-2-((1S,2S)-2-carboxycycloprop-1-yl)-3-(9-xanthyl)propionic acid, reference compound]",,,significant dose-dependent reduction in immobility time,
"N[C@]1(C(=O)O)[C@H]2[C@@H](C[C@H]1OCc1ccc(Cl)c(Cl)c1)[C@]2(F)C(=O)O [Compound 34, (1R,2R,3R,5R,6R)-2-amino-3-(3,4-dichlorobenzyloxy)-6-fluorobicyclo[3.1.0]hexane-2,6-dicarboxylic acid]",,20 nM,significant dose-dependent reduction in immobility time,
CC(O[C@@H]1C[C@@H]2[C@H]([C@]1(N)C(=O)O)[C@@]2(F)C(=O)O)c1ccc2ccccc2c1 (relative stereo) [58],> 188 °C,,,
CCCC(C)OC1C[C@@H]2[C@@H]([C@@]2(F)C(=O)O)[C@]1(N)C(=O)O (stereo partly drawn) [Compound 44],> 170 °C,,,
NC1(C(=O)O)C(OCc2ccc3ccccc3c2)CC2C1C2(F)C(=O)O (stereo not drawn) [Compound 42],> 210 °C,,,22.7 nM
NC1(C(=O)O)C(OCc2ccc(F)c(F)c2)CC2C1C2(F)C(=O)O (stereo not drawn) [Compound 28],,,,40.8 nM
"CO[C@@H]1C[C@@H]2[C@H]([C@]1(N)C(=O)O)[C@@]2(F)C(=O)O [Compound 1, (1R,2R,3R,5R,6R)-2-amino-3-methoxy-6-fluorobicyclo[3.1.0]hexane-2,6-dicarboxylic acid]",> 199 °C,229 nM,,
CC(O[C@@H]1C[C@@H]2[C@H]([C@]1(N)C(=O)O)[C@@]2(F)C(=O)O)c1ccc2ccccc2c1 (relative stereo) [57],> 185 °C,,,
NC1(C(=O)O)C(OCc2ccccc2)CC2C1C2(F)C(=O)O (stereo not drawn) [Compound 6],> 226 °C,,,131 nM
NC1(C(=O)O)C(OC(c2ccccc2)c2ccccc2)CC2C1C2(F)C(=O)O (stereo not drawn) [Compound 52],> 230 °C,,,24.4 nM
